# Assays:
# hCA I = molecular target: T1, hCA I (Homo sapiens, UniProt P00915); assay: stopped-flow CO2 hydrase assay, hCA I; assay type: biochemical
# T1 construct: made in house
# Experimental: (§1) For that purpose, the stopped-flow CO2 hydration assay was used (Table 1).
# (§2) The inhibitory properties of title compounds against CAs were determined using the stopped-flow CO2 hydrase assay, as previously reported.
# hCA II = molecular target: T2, hCA II (Homo sapiens, UniProt P00918); assay: stopped-flow CO2 hydrase assay, hCA II; assay type: biochemical
# T2 construct: made in house
# Experimental: as §1, §2
# hCA IX = molecular target: T3, hCA IX (Homo sapiens, UniProt Q16790); assay: stopped-flow CO2 hydrase assay, hCA IX; assay type: biochemical
# T3 construct: made in house
# Experimental: as §1, §2
# hCA XII = molecular target: T4, hCA XII (Homo sapiens, UniProt O43570); assay: stopped-flow CO2 hydrase assay, hCA XII; assay type: biochemical
# T4 construct: made in house
# T4 sequence (O43570 25-354): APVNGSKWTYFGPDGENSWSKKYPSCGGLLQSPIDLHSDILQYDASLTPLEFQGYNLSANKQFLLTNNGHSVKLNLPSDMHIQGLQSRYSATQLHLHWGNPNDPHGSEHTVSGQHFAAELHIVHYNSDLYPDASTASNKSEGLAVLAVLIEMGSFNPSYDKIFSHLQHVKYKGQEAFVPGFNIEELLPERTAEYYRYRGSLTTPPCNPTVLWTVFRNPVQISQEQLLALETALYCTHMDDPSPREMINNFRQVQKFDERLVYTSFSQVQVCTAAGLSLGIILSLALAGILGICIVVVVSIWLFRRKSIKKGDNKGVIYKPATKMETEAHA
# Experimental: as §1, §2
# [1] = tested on: A549 (non-small cell lung); assay: antiproliferative assay (NCI protocol), A549; assay type: cell-based; details: Homo sapiens; line A549; normoxic conditions
# Experimental: (§3) Some representative compounds (5a–e, 16b, 16e–i) were also tested as potential antiproliferative agents against a panel of six human tumor cell lines: A549 (non-small cell lung), HBL-100 (breast), HeLa (cervix), SW1573 (non-small cell lung), T-47D (breast), WiDr (colon). Unfortunately, no relevant activity was found for the tested compounds.
# (§4) Minor modifications of the US National Cancer Institute (NCI) protocol were used.
# [2] = tested on: A549, HBL-100, HeLa, SW1573, T-47D, WiDr; assay: antiproliferative assay (NCI protocol), panel of six human tumor cell lines; assay type: cell-based; details: normoxic conditions
# Experimental: as §3, §4
# [3] = coumarin-containing squaramides, incubation time 6 h, mean from three assays
# [4] = sulfonamido-containing squaramides, mean from 3 assays, stopped flow
# T1 sequence (P00915 whole entry): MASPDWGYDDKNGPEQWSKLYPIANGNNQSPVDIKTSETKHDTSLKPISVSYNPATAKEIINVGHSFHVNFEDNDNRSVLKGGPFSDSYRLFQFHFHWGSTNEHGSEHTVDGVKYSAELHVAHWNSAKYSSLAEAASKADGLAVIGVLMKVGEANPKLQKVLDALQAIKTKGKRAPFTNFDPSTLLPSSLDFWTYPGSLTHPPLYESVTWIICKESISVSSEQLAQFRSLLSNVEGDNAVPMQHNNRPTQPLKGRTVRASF
Compound,Ki (hCA I; [3]) [nM],Ki (hCA II; [3]) [nM],Ki (hCA IX; [3]) [nM],Ki (hCA XII; [3]) [nM],GI50 [1] [nM],GI50 ([2]; the rest of the cell lines (other than A549)) [nM],melting point [°C],Ki (hCA I; [4]) [nM],Ki (hCA II; [4]) [nM],S.I. I/IX (hCA IX; Ki (CA I)/Ki (CA IX)),S.I. II/IX (hCA IX; Ki (CA II)/Ki (CA IX)),Ki (hCA IX; [4]) [nM],S.I. I/XII (hCA XII; Ki (CA I)/Ki (CA XII)),S.I. II/XII (hCA XII; Ki (CA II)/Ki (CA XII)),Ki (hCA XII; [4]) [nM],GI50 ([2]; all the cell lines) [nM]
"Cc1cc(=O)oc2cc(OCCCCCNc3c(Nc4ccccc4)c(=O)c3=O)ccc12 [Compound 16b, 3-{[5′-((4″-Methyl-2″-oxo-2″H-chromen-7″-yl)oxy)pentyl]amino}-4-phenylaminocyclobut-3-ene-1,2-dione]",> 10000,> 10000,44.1,14.3,94000 ± 10000,> 100000,> 250,,,,,,,,,
"NS(=O)(=O)c1ccc(CCNc2c(NCCc3ccc(S(N)(=O)=O)cc3)c(=O)c2=O)cc1 [Compound 6, 3,4-Bis[2′-(4″-sulfonamidophenyl)ethylamino]cyclobut-3-ene-1,2-dione]",,,,,,,,43.2,56.2,0.52,0.68,83,0.49,0.64,87.8,> 100000
"COc1ccc(Nc2c(NCCCCCOc3ccc4c(C)cc(=O)oc4c3)c(=O)c2=O)cc1 [Compound 16e, 3-[(4′-Methoxyphenyl)amino]-4-{[5″-(4‴-methyl-2‴-oxo-2‴H-chromen-7‴-yl)oxypentyl]amino}cyclobut-3-ene-1,2-dione]",> 10000,> 10000,59.7,19.5,,,215 to 216,,,,,,,,,> 100000
